Laboratory results from paper PMC8329197, “Compounds targeting OSBPL7 increase ABCA1-dependent cholesterol efflux preserving kidney function in two models of kidney disease” (Nature Communications, 2021).
“And” between values parts separate entries of the source, which are not always exact repeats. Equal entries are not always repeated.

Legend:
human podocytes = assay: apoAI-mediated cholesterol efflux in human podocytes; format: cell-based; conditions: for ApoA1-mediated cholesterol efflux (%) in podocytes: single experiments
Protocol: Cell lines were purchased from ATCC and subcultured for no more than passage 15, except for human podocytes, which were originally from Dr Jochen Reiser. Conditionally immortalized human podocytes were cultured under permissive conditions at 33 °C, in RPMI medium (Corning) containing 10% FBS (GIBCO), 1% penicillin/streptomycin, 0.01 mg/ml recombinant human insulin, 0.0055 mg/ml human transferrin (substantially iron-free), and 0.005 μg/ml sodium selenite (ITS, Corning). To induce differentiation, podocytes were cultured at 37 °C for 14 days in RPMI medium containing 10% FBS (GIBCO) and 1% penicillin/streptomycin. Differentiated podocytes were starved in RPMI-0.2% FBS for 18 h and then treated with 1 μM, 5 μM, and 10 μM of compounds freshly prepared in DMSO for 18 h at 37 °C as indicated.
Human podocytes differentiated for 13 days were labeled for 24 h at 37 °C in RPMI medium containing 2% FBS and [^3H]-cholesterol (1 μCi/ml, American Radiolabeled Chemicals). Cells were then washed 3 times with PBS and incubated with RPMI supplemented with 0.2% fat free-BSA (Sigma) with or without compounds for 18-h at 37 °C. The compounds were used at the following concentrations: Cpd C (1 μM), Cpd A (1 μM, 5 μM) and Cpd G (1 μM, 5 μM, 10 μM). Following the 18-h incubation, human apoAI (Calbiochem) was added to the media, (20 μg/mL final concentration) and the cells were incubated for another 18 h at 37 °C. Aliquots of medium collected before (T = 0 h) and after (T = 18 h) the addition of apoAI were centrifuged at 12,000 × g for 5 min and the radioactivity in the supernatant was counted by liquid scintillation. Cells were then washed with PBS, lysed 0.1% SDS, 0.1M NaOH and the radioactivity in the lysates was quantified by liquid scintillation. apoAI-mediated cholesterol efflux, expressed as %, was calculated as the amount of label released to the medium after adding apoAI (the difference in radioactivity in the medium before and after adding ApoA1) divided by the amount of total label in each well (radioactivity released to the media plus radioactivity in the lysed cells).

[1] = test system: Adriamycin (ADR)-induced nephropathy in Balb/c mice; assay: ADR nephropathy: liver total cholesterol, cholesterol esters, triglycerides; format: in vivo, mouse; conditions: ADR model; individual animals
[2] = test system: Adriamycin (ADR)-induced nephropathy in Balb/c mice; assay: ADR nephropathy: IL-1β and MCP-1 mRNA in kidney cortex; format: in vivo, mouse
Protocol: RNA was isolated using RNEasy Plus Mini kit (Qiagen). Reverse transcription was performed using qScript cDNA Super Mix (Quantabio) according to the manufacturer’s instructions. Quantitative real-time PCR was performed using TaqMan Fast Universal PCR Master Mix and Taqman gene expression assays (Supplementary Table 7).

3A4 = assay: TDI (3A4) time dependent inhibition; format: in vitro ADME
Free fraction, man = format: in vitro ADME; conditions: rat
Hepatocytes Clint, rat = format: in vitro ADME
[3] = Rat single-dose pharmacokinetics; conditions: in vivo
[4] = test system: Adriamycin (ADR)-induced nephropathy in Balb/c mice; assay: Adriamycin-induced nephropathy, dose-finding pilot study: ACR and body weight time course; conditions: for ACR in pilot study: days 7-28; for Body Weight / ACR in spot urine: ADR, individual mice
[5] = 30 mg/Kg/day, 7 days after inj, 30 mg/kg/day
[6] = 30 mg/Kg/day, 14 days after inj, 30 mg/kg/day
[7] = 30 mg/Kg/day, 21 days after inj, 30 mg/kg/day
[8] = 30 mg/Kg/day, 28 days after inj, 30 mg/kg/day
[9] = 100 mg/Kg/day, 7 days after inj, 100 mg/kg/day
[10] = 100 mg/Kg/day, 14 days after inj, 100 mg/kg/day
[11] = 100 mg/Kg/day, 21 days after inj, 100 mg/kg/day
[12] = 100 mg/Kg/day, 28 days after inj, 100 mg/kg/day

O=C(N[C@@H]1CCCC[C@H]1O)c1cnc(OCC(F)(F)F)c(-c2ccc(Cl)c(Cl)c2)c1 [Cpd G]
ApoA1-mediated cholesterol efflux (%) in podocytes (human podocytes; 1 uM): 0.3% and 1.2% and 1.6%
ApoA1-mediated cholesterol efflux (%) in podocytes (human podocytes; 5 uM): 0% and 2.5% and 2.3%
ApoA1-mediated cholesterol efflux (%) in podocytes (human podocytes; 10 uM): 4.4% and 7.9%
Increase in apoAI-mediated cholesterol efflux vs. untreated cells (human podocytes; Cpd G 10 µM, Cpd A 5 µM, Cpd C 1 µM): ~2 fold
LIVER CHOLESTEROL ESTERS [1]: 2.88 nmol CE/ mg protein and 6.03 nmol CE/ mg protein and 6.11 nmol CE/ mg protein and 1.54 nmol CE/ mg protein and 4.33 nmol CE/ mg protein and 2.97 nmol CE/ mg protein and 3.06 nmol CE/ mg protein
LIVER TOTAL CHOLESTEROL [1]: 118 nmol Cholesterol/ mg protein and 122 nmol Cholesterol/ mg protein and 97.7 nmol Cholesterol/ mg protein and 114 nmol Cholesterol/ mg protein and 146 nmol Cholesterol/ mg protein
LIVER TRIGLICERIDES [1]: 35 nmol Triglycerides/ mg protein and 30 nmol Triglycerides/ mg protein and 48.4 nmol Triglycerides/ mg protein and 51 nmol Triglycerides/ mg protein and 39 nmol Triglycerides/ mg protein
IL1β in kidney cortex ([2]; ADR + Cpd G): reduced
MCP-1 in kidney cortex ([2]; ADR + Cpd G): reduced
Relative MCP1/PGK1 mRNA Expression (RQ) ([2]; kidney cortexes after ADR injection, No ADR group as reference, individual mice): 0.39 and 4.08 (2×) and 0.99 and 0.91 and 1.65 (2×) and 0.3536 and 0.2392 and 0.3907 and 0.9918 and 0.906 and 0.35 and 0.24
Relative MCP1/PGK1 mRNA Expression (RQ), Median ([2]; kidney cortexes after ADR injection, group median): 0.91
Relative IL1-B/PGK1 mRNA Expression (RQ) ([2]; kidney cortexes, ADR, 100 mg/Kg/Day for 28 days, No ADR group as reference, individual mice, 100 mg/kg/day): 0.44 and 1.49 and 0.38 and 0.75 and 0.61 and 2.626 and 0.452 and 0.4443 and 1.494 and 0.3797 and 0.7453 and 0.6111 and 2.63 and 0.45
Relative IL1-B/PGK1 mRNA Expression (RQ), Median ([2]; kidney cortexes, ADR, 100 mg/Kg/Day for 28 days, group median): 0.61
TDI (3A4) time dependent inhib (3A4): Negative
fraction unbound (Free fraction, man): < 0.01
Hepatocytes Clint (Fh%) (r/h) (Hepatocytes Clint, rat): 70%
bioavailability [3]: 105%
clearance [3]: 2.5 mL/min/kg
half-life [3]: 8.9 h
Vd ([3]; read-out: Vss): 1.5 L/kg
ACR in pilot study ([4]; 30 mg/kg/day oral): to a lesser extent
ACR in pilot study ([4]; 100 mg/kg/day oral): significantly improved
Body Weight ([4]; 30 mg/Kg/day, 0 days after inj, 30 mg/kg/day): 20 grams and 18 grams and 19 grams (2×) and 23 grams
ACR in spot urine [4, 5]: 0.007 mg Albumin/ mg Creatinine in urine and 0.03 mg Albumin/ mg Creatinine in urine and 0.12 mg Albumin/ mg Creatinine in urine and 31.944 mg Albumin/ mg Creatinine in urine and 0.643 mg Albumin/ mg Creatinine in urine
Body Weight [4, 5]: 18 grams and 19 grams (3×) and 23 grams
ACR in spot urine [4, 6]: 51.688 mg Albumin/ mg Creatinine in urine and 33.252 mg Albumin/ mg Creatinine in urine and 84.069 mg Albumin/ mg Creatinine in urine and 36.836 mg Albumin/ mg Creatinine in urine and 5.571 mg Albumin/ mg Creatinine in urine
Body Weight [4, 6]: 18 grams and 19 grams (2×) and 16 grams and 23 grams
ACR in spot urine [4, 7]: 85.027 mg Albumin/ mg Creatinine in urine and 29.222 mg Albumin/ mg Creatinine in urine and 44.604 mg Albumin/ mg Creatinine in urine and 23.436 mg Albumin/ mg Creatinine in urine and 5.121 mg Albumin/ mg Creatinine in urine
Body Weight [4, 7]: 17 grams and 19 grams (2×) and 18 grams and 15 grams
ACR in spot urine [4, 8]: 34.615 mg Albumin/ mg Creatinine in urine and 3.13 mg Albumin/ mg Creatinine in urine and 6.059 mg Albumin/ mg Creatinine in urine and 7.143 mg Albumin/ mg Creatinine in urine and 2.473 mg Albumin/ mg Creatinine in urine
Body Weight [4, 8]: 16 grams and 20 grams (2×) and 17 grams and 15 grams
Body Weight ([4]; 100 mg/Kg/day, 0 days after inj, 100 mg/kg/day): 20 grams (3×) and 16 grams and 22 grams
ACR in spot urine [4, 9]: 0.061 mg Albumin/ mg Creatinine in urine and 0.016 mg Albumin/ mg Creatinine in urine and 0.015 mg Albumin/ mg Creatinine in urine and 0.233 mg Albumin/ mg Creatinine in urine and 9.666 mg Albumin/ mg Creatinine in urine
Body Weight [4, 9]: 19 grams (3×) and 16 grams and 22 grams
ACR in spot urine [4, 10]: 3.994 mg Albumin/ mg Creatinine in urine and 0.535 mg Albumin/ mg Creatinine in urine and 50.828 mg Albumin/ mg Creatinine in urine and 1.336 mg Albumin/ mg Creatinine in urine and 89.551 mg Albumin/ mg Creatinine in urine
Body Weight [4, 10]: 20 grams (2×) and 19 grams (2×) and 15 grams
ACR in spot urine [4, 11]: 0.238 mg Albumin/ mg Creatinine in urine and 0.124 mg Albumin/ mg Creatinine in urine and 0.794 mg Albumin/ mg Creatinine in urine and 8.14 mg Albumin/ mg Creatinine in urine
Body Weight [4, 11]: 20 grams (3×) and 15 grams and 19 grams
ACR in spot urine [4, 12]: 0.09 mg Albumin/ mg Creatinine in urine and 0.018 mg Albumin/ mg Creatinine in urine and 0.86 mg Albumin/ mg Creatinine in urine and 0.271 mg Albumin/ mg Creatinine in urine and 3.053 mg Albumin/ mg Creatinine in urine
Body Weight [4, 12]: 20 grams (2×) and 21 grams and 20.5 grams and 16 grams
